Source: ChEMBL document CHEMBL1134292, “Estrogen receptor-beta potency-selective ligands: structure-activity relationship studies of diarylpropionitriles and their acetylene and polar analogues” (J Med Chem, 2001)

Target: Estrogen receptor beta (Homo sapiens, UniProt Q92731)
Sequence (Q92731 whole entry): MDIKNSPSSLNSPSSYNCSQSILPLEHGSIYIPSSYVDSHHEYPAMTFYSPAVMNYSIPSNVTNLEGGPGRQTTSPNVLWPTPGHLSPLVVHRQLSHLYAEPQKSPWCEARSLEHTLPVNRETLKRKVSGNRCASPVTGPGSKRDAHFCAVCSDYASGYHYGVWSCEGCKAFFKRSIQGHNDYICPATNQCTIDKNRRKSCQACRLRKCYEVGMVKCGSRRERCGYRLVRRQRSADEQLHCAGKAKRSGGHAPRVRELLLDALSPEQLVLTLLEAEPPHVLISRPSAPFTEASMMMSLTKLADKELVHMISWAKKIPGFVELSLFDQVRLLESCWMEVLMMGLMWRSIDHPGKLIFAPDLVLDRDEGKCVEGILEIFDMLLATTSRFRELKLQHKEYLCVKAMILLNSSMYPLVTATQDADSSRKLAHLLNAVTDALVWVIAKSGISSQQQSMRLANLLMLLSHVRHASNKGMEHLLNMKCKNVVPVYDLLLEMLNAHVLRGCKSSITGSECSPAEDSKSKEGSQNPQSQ
Description: Transcriptional potency (EC50) at Human estrogen receptor Beta

In order of falling EC50:
1. N#C/C(=C/c1ccc(O)cc1)c1ccc(O)cc1  220 nM
2. O=C(C(Cc1ccc(O)cc1)c1ccc(O)cc1)C(F)(F)F (stereo not given)  160 nM
3. N#C/C(=C\c1ccc(O)cc1)c1ccc(O)cc1  140 nM
4. N#CC(c1ccc(O)cc1)C(C#N)c1cccc(O)c1 (stereo not given)  110 nM
5. CC(=O)C(Cc1ccc(O)cc1)c1ccc(O)cc1 (stereo not given)  35 nM
6. N#CC[C@H](Cc1ccc(O)cc1)c1ccc(O)cc1  30 nM
7. N#CC(C#N)(Cc1ccc(O)cc1)c1ccc(O)cc1  21 nM
8. Oc1ccc(CC(c2ccc(O)cc2)C(F)(F)C(F)(F)F)cc1 (stereo not given)  15 nM
9. CC(C#N)(Cc1ccc(O)cc1)c1ccc(O)cc1 (stereo not given)  8 nM
10. COC(=O)C(Cc1ccc(O)cc1)c1ccc(O)cc1 (stereo not given)  4.9 nM
11. C#CC(c1ccc(O)cc1)C(C#C)c1ccc(O)cc1 (racemic)  3.7 nM
12. CC#CC(Cc1ccc(O)cc1)c1ccc(O)cc1 (stereo not given)  2.1 nM
13. Oc1ccc(CC(c2ccc(O)cc2)C(F)(F)F)cc1 (stereo not given)  2 nM
14. Cc1cc(O)ccc1C(C#N)Cc1ccc(O)cc1 (stereo not given)  1.7 nM
15. C#CC(Cc1ccc(O)cc1)c1ccc(O)cc1 (stereo not given)  1.4 nM
16. N#CC(c1ccc(O)cc1)C(C#N)c1ccc(O)cc1 (stereo in doubt)  0.42 nM
17. N#CC(c1ccc(O)cc1)C(C#N)c1ccc(O)cc1 (stereo in doubt; 31a(dl))  0.41 nM
18. Cc1cc(O)ccc1CC(C#N)c1ccc(O)cc1 (stereo not given)  0.37 nM
19. CC[C@H](c1ccc(O)cc1)[C@@H](C#N)c1ccc(O)cc1  0.15 nM
20. C[C@H](c1ccc(O)cc1)[C@@H](C#N)c1ccc(O)cc1  0.14 nM
